According to the supplement of paper PMC10307832:

What was measured:
Experiment in all cases: relative viability (nuclei count vs DMSO), 5 days (fraction); higher = more cells survive
PC-3 [JPC-3] = test system: PC-3 [JPC-3]
Summary of the method: (§1)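 Relative viability divides the nuclei count in treated wells by that in vehicle wells. Lung cancer cell lines were seeded in 1536-well plates, dosed by pin tool the next day, and fixed and stained after 5 days in one step with final 0.05% Triton X-100, 1% formaldehyde and 1 ug/ml Hoechst. Dosing was a single drug or a fixed anchor-drug dose plus five library-drug doses (not always all listed) in √10 steps, and values are medians of duplicate plates imaged at 4×.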

SW 1573 = test system: SW 1573
Summary of the method: as §1

LK-2 = test system: LK-2
Summary of the method: as §1

NCI-H3122 = test system: NCI-H3122
Summary of the method: as §1

NCI-H2170 = test system: NCI-H2170
Summary of the method: as §1

EMC-BAC-2 = test system: EMC-BAC-2
Summary of the method: as §1

NCI-H322M = test system: NCI-H322M
Summary of the method: as §1

SW 900 = test system: SW 900
Summary of the method: as §1

NCI-H596 = test system: NCI-H596
Summary of the method: as §1

NCI-H1993 = test system: NCI-H1993
Summary of the method: as §1

A-427 = test system: A-427
Summary of the method: as §1

NCI-H2009 = test system: NCI-H2009
Summary of the method: as §1

LXF-289 = test system: LXF-289
Summary of the method: as §1

HARA = test system: HARA
Summary of the method: as §1

NCI-H1792 = test system: NCI-H1792
Summary of the method: as §1

HOP-62 = test system: HOP-62
Summary of the method: as §1

NCI-H1944 = test system: NCI-H1944
Summary of the method: as §1

NCI-H522 = test system: NCI-H522
Summary of the method: as §1

NCI-H2228 = test system: NCI-H2228
Summary of the method: as §1

SK-MES-1 = test system: SK-MES-1
Summary of the method: as §1

`Cc1sc2c(c1C)C(c1ccc(Cl)cc1)=N[C@@H](CC(=O)OC(C)(C)C)c1nnc(C)n1-2` [JQ1] + Nc1nc2[nH]cc(CCc3ccc(C(=O)N[C@@H](CCC(=O)O)C(=O)O)cc3)c2c(=O)[nH]1 [Pemetrexed] (partner 0.2 µM) was tested, and the relative viability (PC-3 [JPC-3]; first compound 0.04 µM) was 1.16, the relative viability (PC-3 [JPC-3]; first compound 0.1265 µM) was 1.12 and the relative viability (PC-3 [JPC-3]; first compound 0.4 µM) was 0.818. For the same compound, the relative viability (PC-3 [JPC-3]; first compound 1.265 µM) was 0.751, the relative viability (PC-3 [JPC-3]; first compound 4 µM) was 0.374 and the relative viability (SW 1573; first compound 0.04 µM) was 0.826. The relative viability (SW 1573; first compound 0.1265 µM) was 0.789, the relative viability (SW 1573; first compound 0.4 µM) was 0.598 and the relative viability (SW 1573; first compound 1.265 µM) was 0.398. For the same compound, the relative viability (SW 1573; first compound 4 µM) was 0.295, the relative viability (LK-2; first compound 0.04 µM) was 0.282 and the relative viability (LK-2; first compound 0.1265 µM) was 0.29. For the same compound, the relative viability (LK-2; first compound 0.4 µM) was 0.234, the relative viability (LK-2; first compound 1.265 µM) was 0.16 and the relative viability (LK-2; first compound 4 µM) was 0.158. It also gave a relative viability (NCI-H3122; first compound 0.04 µM) of 0.193, a relative viability (NCI-H3122; first compound 0.1265 µM) of 0.16 and a relative viability (NCI-H3122; first compound 0.4 µM) of 0.186. It also gave a relative viability (NCI-H3122; first compound 1.265 µM) of 0.118, a relative viability (NCI-H3122; first compound 4 µM) of 0.12 and a relative viability (NCI-H2170; first compound 0.04 µM) of 0.257. For the same compound, the relative viability (NCI-H2170; first compound 0.1265 µM) was 0.263, the relative viability (NCI-H2170; first compound 0.4 µM) was 0.248 and the relative viability (NCI-H2170; first compound 1.265 µM) was 0.238. It also gave a relative viability (NCI-H2170; first compound 4 µM) of 0.194, a relative viability (EMC-BAC-2; first compound 0.04 µM) of 0.437 and a relative viability (EMC-BAC-2; first compound 0.1265 µM) of 0.369. The relative viability (EMC-BAC-2; first compound 0.4 µM) was 0.365, the relative viability (EMC-BAC-2; first compound 1.265 µM) was 0.366 and the relative viability (EMC-BAC-2; first compound 4 µM) was 0.33. It also gave a relative viability (NCI-H322M; first compound 0.04 µM) of 0.625, a relative viability (NCI-H322M; first compound 0.1265 µM) of 0.648 and a relative viability (NCI-H322M; first compound 0.4 µM) of 0.515. The relative viability (NCI-H322M; first compound 1.265 µM) was 0.495, the relative viability (NCI-H322M; first compound 4 µM) was 0.381 and the relative viability (SW 900; first compound 0.04 µM) was 0.472. It also gave a relative viability (SW 900; first compound 0.1265 µM) of 0.477, a relative viability (SW 900; first compound 0.4 µM) of 0.349 and a relative viability (SW 900; first compound 1.265 µM) of 0.19. The relative viability (SW 900; first compound 4 µM) was 0.195, the relative viability (NCI-H596; first compound 0.04 µM) was 0.491 and the relative viability (NCI-H596; first compound 0.1265 µM) was 0.461. The relative viability (NCI-H596; first compound 0.4 µM) was 0.386, the relative viability (NCI-H596; first compound 1.265 µM) was 0.335 and the relative viability (NCI-H596; first compound 4 µM) was 0.367. For the same compound, the relative viability (NCI-H1993; first compound 0.04 µM) was 0.592, the relative viability (NCI-H1993; first compound 0.1265 µM) was 0.649 and the relative viability (NCI-H1993; first compound 0.4 µM) was 0.583. It also gave a relative viability (NCI-H1993; first compound 1.265 µM) of 0.478, a relative viability (NCI-H1993; first compound 4 µM) of 0.49 and a relative viability (A-427; first compound 0.04 µM) of 0.988. For the same compound, the relative viability (A-427; first compound 0.1265 µM) was 0.794, the relative viability (A-427; first compound 0.4 µM) was 0.994 and the relative viability (A-427; first compound 1.265 µM) was 0.914. The relative viability (A-427; first compound 4 µM) was 0.639, the relative viability (NCI-H2009; first compound 0.04 µM) was 0.958 and the relative viability (NCI-H2009; first compound 0.1265 µM) was 0.795. For the same compound, the relative viability (NCI-H2009; first compound 0.4 µM) was 0.954, the relative viability (NCI-H2009; first compound 1.265 µM) was 0.459 and the relative viability (NCI-H2009; first compound 4 µM) was 0.234. It also gave a relative viability (LXF-289; first compound 0.04 µM) of 0.915, a relative viability (LXF-289; first compound 0.1265 µM) of 0.808 and a relative viability (LXF-289; first compound 0.4 µM) of 0.867. It also gave a relative viability (LXF-289; first compound 1.265 µM) of 0.59, a relative viability (LXF-289; first compound 4 µM) of 0.541 and a relative viability (HARA; first compound 0.04 µM) of 0.249. It also gave a relative viability (HARA; first compound 0.1265 µM) of 0.271, a relative viability (HARA; first compound 0.4 µM) of 0.235 and a relative viability (HARA; first compound 1.265 µM) of 0.217. For the same compound, the relative viability (HARA; first compound 4 µM) was 0.185, the relative viability (NCI-H1792; first compound 0.04 µM) was 0.705 and the relative viability (NCI-H1792; first compound 0.1265 µM) was 0.699. It also gave a relative viability (NCI-H1792; first compound 0.4 µM) of 0.434, a relative viability (NCI-H1792; first compound 1.265 µM) of 0.15 and a relative viability (NCI-H1792; first compound 4 µM) of 0.0524. The relative viability (HOP-62; first compound 0.04 µM) was 0.271, the relative viability (HOP-62; first compound 0.1265 µM) was 0.266 and the relative viability (HOP-62; first compound 0.4 µM) was 0.26. It also gave a relative viability (HOP-62; first compound 1.265 µM) of 0.137, a relative viability (HOP-62; first compound 4 µM) of 0.106 and a relative viability (NCI-H1944; first compound 0.04 µM) of 0.74. The relative viability (NCI-H1944; first compound 0.1265 µM) was 0.565, the relative viability (NCI-H1944; first compound 0.4 µM) was 0.466 and the relative viability (NCI-H1944; first compound 1.265 µM) was 0.446. The relative viability (NCI-H1944; first compound 4 µM) was 0.438, the relative viability (NCI-H522; first compound 0.04 µM) was 0.929 and the relative viability (NCI-H522; first compound 0.1265 µM) was 0.877. For the same compound, the relative viability (NCI-H522; first compound 0.4 µM) was 0.54, the relative viability (NCI-H522; first compound 1.265 µM) was 0.59 and the relative viability (NCI-H522; first compound 4 µM) was 0.444. It also gave a relative viability (NCI-H2228; first compound 0.04 µM) of 0.362, a relative viability (NCI-H2228; first compound 0.1265 µM) of 0.314 and a relative viability (NCI-H2228; first compound 0.4 µM) of 0.358. It also gave a relative viability (NCI-H2228; first compound 1.265 µM) of 0.312, a relative viability (NCI-H2228; first compound 4 µM) of 0.184 and a relative viability (SK-MES-1; first compound 0.04 µM) of 0.967. The relative viability (SK-MES-1; first compound 0.1265 µM) was 0.686, the relative viability (SK-MES-1; first compound 0.4 µM) was 0.397 and the relative viability (SK-MES-1; first compound 1.265 µM) was 0.289. It also gave a relative viability (SK-MES-1; first compound 4 µM) of 0.235.
